From publication PMC2877487 (Bioorganic & medicinal chemistry letters, 2009)
Read-outs that look alike come from different tables or passages of the source.

Experiments:
[1] = Stability by HPLC peak area decrease, first order decay half-life; assay type: physicochemical; settings: culture media, First order decay half-life (t1/2)
[2] = buffer; cited from earlier work

Structure (SMILES) | half-life [1] [min] | half-life [2] [h]
C[C@@]12c3ccc4c(c3C(=O)c3occ(c31)C(=O)C[C@H]2OC(=O)CCC(=O)O)CCC4=O [SA-Dmv] | < 1 | 
COC[C@H]1OC(=O)c2coc3c2[C@@]1(C)C1=C(C3=O)[C@@H]2CCC(=O)[C@@]2(C)C[C@H]1OC(C)=O [Wm, wortmannin] | < 1 | 57.8
